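A five-concentration, 48-hour dose response in 96-well plates underlies each endpoint, interpolated linearly between surrounding concentrations. At the GI50, growth is halved. Definition used: TGI = concentration required for complete inhibition of growth.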
What was measured:
Experiment in all cases: DTP human tumour cell line panel, 48 h
[1] = tested on: CCRF-CEM leukemia
[2] = tested on: K-562 leukemia
[3] = tested on: A498 renal
[4] = tested on: RXF 393 renal
[5] = tested on: T-47D breast
[6] = tested on: HS 578T breast
[7] = tested on: HCT-15 colon
[8] = tested on: SF-268 CNS
[9] = tested on: SNB-75 CNS
[10] = tested on: SK-OV-3 ovarian
[11] = tested on: 786-0 renal
[12] = tested on: OVCAR-4 ovarian
[13] = tested on: SK-MEL-2 melanoma
[14] = tested on: NCI-H226 lung
[15] = tested on: MDA-MB-231 breast
[16] = tested on: SNB-19 CNS
[17] = tested on: OVCAR-8 ovarian
[18] = tested on: HCT-116 colon
[19] = tested on: HT29 colon
[20] = tested on: NCI/ADR-RES ovarian
[21] = tested on: OVCAR-5 ovarian
[22] = tested on: SW-620 colon
[23] = tested on: EKVX NSCLC
[24] = tested on: A549 NSCLC
[25] = tested on: SK-MEL-5 melanoma
[26] = tested on: BT-549 breast
[27] = tested on: PC-3 prostate
[28] = tested on: DU-145 prostate

**Q.** O=C1c2ccc3c4c(ccc(c24)C(=O)N1CCCNCc1ccccc1Cl)C(=O)N(CCCNCc1ccccc1Cl)C3=O was tested. Which GI50 [1] did it give?
**A.** 215 nM

**Q.** What about the TGI [1] of the same compound?
**A.** 50000 nM

**Q.** And the GI50 [2]?
**A.** 183 nM

**Q.** And the TGI [2]?
**A.** 1120 nM

**Q.** And the GI50 [3]?
**A.** 712 nM

**Q.** What about the TGI [3] of the same compound?
**A.** 1430 nM

**Q.** What about the GI50 [4] of the same compound?
**A.** 121 nM

**Q.** What about the TGI [4] of the same compound?
**A.** 366 nM

**Q.** What about the GI50 [5] of the same compound?
**A.** 787 nM

**Q.** What about the TGI [5] of the same compound?
**A.** 2170 nM

**Q.** And the GI50 [6]?
**A.** 984 nM

**Q.** What about the TGI [6] of the same compound?
**A.** 11900 nM

**Q.** What about the GI50 [7] of the same compound?
**A.** 148 nM

**Q.** And the TGI [7]?
**A.** 620 nM

**Q.** What about the GI50 [8] of the same compound?
**A.** 477 nM

**Q.** And the TGI [8]?
**A.** 1490 nM

**Q.** What about the GI50 [9] of the same compound?
**A.** 716 nM

**Q.** And the TGI [9]?
**A.** 1470 nM

**Q.** And the GI50 [10]?
**A.** 862 nM

**Q.** What about the TGI [10] of the same compound?
**A.** 3180 nM

**Q.** What about the GI50 [11] of the same compound?
**A.** 610 nM

**Q.** And the TGI [11]?
**A.** 1430 nM

**Q.** What about the GI50 [12] of the same compound?
**A.** 89.1 nM

**Q.** What about the TGI [12] of the same compound?
**A.** 182 nM

**Q.** What about the GI50 [13] of the same compound?
**A.** 415 nM

**Q.** What about the TGI [13] of the same compound?
**A.** 1280 nM

**Q.** And the GI50 [14]?
**A.** 659 nM

**Q.** And the TGI [14]?
**A.** 1490 nM

**Q.** What about the GI50 [15] of the same compound?
**A.** 250 nM

**Q.** What about the TGI [15] of the same compound?
**A.** 2200 nM

**Q.** And the GI50 [16]?
**A.** 314 nM

**Q.** And the TGI [16]?
**A.** 987 nM

**Q.** What about the GI50 [17] of the same compound?
**A.** 148 nM

**Q.** What about the TGI [17] of the same compound?
**A.** 533 nM

**Q.** And the GI50 [18]?
**A.** 126 nM

**Q.** What about the TGI [18] of the same compound?
**A.** 344 nM

**Q.** What about the GI50 [19] of the same compound?
**A.** 123 nM

**Q.** And the TGI [19]?
**A.** 335 nM

**Q.** What about the GI50 [20] of the same compound?
**A.** 142 nM

**Q.** What about the TGI [20] of the same compound?
**A.** 456 nM

**Q.** What about the GI50 [21] of the same compound?
**A.** 592 nM

**Q.** And the TGI [21]?
**A.** 1670 nM

**Q.** What about the GI50 [22] of the same compound?
**A.** 128 nM

**Q.** What about the TGI [22] of the same compound?
**A.** 361 nM

**Q.** And the GI50 [23]?
**A.** 481 nM

**Q.** And the TGI [23]?
**A.** 1160 nM

**Q.** And the GI50 [24]?
**A.** 230 nM

**Q.** And the TGI [24]?
**A.** 833 nM

**Q.** What about the GI50 [25] of the same compound?
**A.** 399 nM

**Q.** What about the TGI [25] of the same compound?
**A.** 1020 nM

**Q.** And the GI50 [26]?
**A.** 870 nM

**Q.** And the TGI [26]?
**A.** 1800 nM

**Q.** And the GI50 [27]?
**A.** 268 nM

**Q.** What about the TGI [27] of the same compound?
**A.** 1560 nM

**Q.** What about the GI50 [28] of the same compound?
**A.** 261 nM

**Q.** And the TGI [28]?
**A.** 860 nM

Source: PubChem BioAssay (NCI)
